This note sets out measurements from ChEMBL document CHEMBL1144591, “Synthesis and cytotoxicity of some new eriocalyxin B derivatives” (Eur J Med Chem, 2007).

Common to all, as to format: functional, cell-based
For one assay, the system named is MCF7. The assay can be described thus: Cytotoxicity against human MCF7 cells after 48 hrs by MTT colorimetric assay. The note with it: MCF7, 48 h.
The test system of the next assay is DU-145. The assay can be described thus: Cytotoxicity against human DU145 cells after 48 hrs by MTT colorimetric assay. As to conditions: DU-145, 48 h.
A short description of assay [1]: Cytotoxicity against human OVCA2780 cells after 48 hrs by MTT colorimetric assay. The note with it: A2780, 48 h. A general note: Formazan colour is commonly taken as a measure of viable cells.
For the next assay, the system named is A549. Put plainly: Cytotoxicity against human A549 cells after 48 hrs by MTT colorimetric assay. The note with it: A549, 48 h.
The next assay deals with K562. The assay can be described thus: Cytotoxicity against human K562 cells after 48 hrs by MTT colorimetric assay. The note with it: K562, 48 h.

≈ marks a conversion by molar mass, not a printed value.

On to `C[C@H]1C(=O)[C@]23C[C@H]1CC[C@H]2[C@@]12CO[C@@]3(O)[C@@H](O)[C@@H]1C(C)(C)CCC2=O`, for which the IC50 in the assay on MCF7 was over 200 µg/mL; in the assay on DU-145 it was over 200 µg/mL; in assay [1], over 200 µg/mL; in the assay on A549 it was over 100 µg/mL; with K562, over 100 µg/mL.

For the compound `C=C1C(=O)[C@]23C[C@H]1CC[C@H]2[C@@]12CO[C@@]3(O)[C@@H](OC(C)=O)[C@@H]1C(C)(C)C=CC2=O`, the IC50 stood at 20.1 µg/mL (≈ 51.9 µM) with MCF7; 80.6 µg/mL (≈ 209 µM) in the assay on DU-145; 11.9 µg/mL (≈ 30.9 µM) in assay [1]; 31 µg/mL (≈ 80.2 µM) in the assay on A549; 25 µg/mL (≈ 64.7 µM) in the assay on K562.

On to `C=C1C(=O)[C@]23C[C@H]1CC[C@H]2[C@@]12CO[C@@]3(O)[C@@H](OC(=O)CBr)[C@@H]1C(C)(C)C=CC2=O`, for which the IC50 was determined as 0.85 µg/mL (≈ 1.83 µM) with MCF7; 4.52 µg/mL (≈ 9.71 µM) in the assay on DU-145; 2.06 µg/mL (≈ 4.43 µM) in assay [1]; 4.86 µg/mL (≈ 10.4 µM) in the assay on A549; 1.5 µg/mL (≈ 3.22 µM) in the assay on K562.

As to `C=C1C(=O)[C@]23C[C@H]1CC[C@H]2[C@]1(COC(C)=O)C(=O)C=CC(C)(C)[C@H]1[C@H](OC(C)=O)C3=O`, the IC50 is 24.6 µg/mL (≈ 57.4 µM) with MCF7; 17.9 µg/mL (≈ 41.8 µM) in the assay with DU-145; 9.71 µg/mL (≈ 22.7 µM) in assay [1]; 61.8 µg/mL (≈ 144 µM) with A549; 28.1 µg/mL (≈ 65.6 µM) in the assay with K562.

For the compound `C=C1C(=O)[C@]23C[C@H]1CC[C@H]2[C@]12CO[C@@H](CC1=O)C(C)(C)[C@H]2[C@H](OC(C)=O)C3=O`, the IC50 is 36.7 µg/mL (≈ 94.9 µM) in the assay with MCF7; 31.9 µg/mL (≈ 82.5 µM) with DU-145; 11.3 µg/mL (≈ 29.2 µM) in assay [1]; 10.1 µg/mL (≈ 26.1 µM) with A549; 19.3 µg/mL (≈ 49.9 µM) in the assay with K562.

As to `C=C1C(=O)[C@]23C[C@H]1CC[C@H]2[C@]12CO[C@@H](CC1=O)C(C)(C)[C@H]2[C@H](OC(=O)CBr)C3=O`, the 50% inhibitory concentration (IC50) came out at 67.1 µg/mL (≈ 144 µM) in the assay on MCF7; 26.6 µg/mL (≈ 57.1 µM) in the assay with DU-145; 14.9 µg/mL (≈ 32.1 µM) in assay [1]; 10.9 µg/mL (≈ 23.4 µM) in the assay with A549; 4.54 µg/mL (≈ 9.76 µM) in the assay with K562.

Regarding `C=C1C(=O)[C@]23C[C@H]1CC[C@H]2[C@]12CO[C@@H](CC1=O)C(C)(C)[C@H]2[C@H](OC(=O)CCCl)C3=O`, the IC50 with MCF7 is 22.7 µg/mL (≈ 52.1 µM); with DU-145, 51 µg/mL (≈ 117 µM); in assay [1], 10.5 µg/mL (≈ 24.1 µM); in the assay on A549 it was 20.3 µg/mL (≈ 46.6 µM); in the assay with K562, 8.88 µg/mL (≈ 20.4 µM).

In the case of `C=C(C(=O)O)[C@@H]1CC[C@@H]2[C@@H](C1)C(=O)C(O)=C1C(C)(C)[C@@H]3CC(=O)[C@]12CO3`, the IC50 (with MCF7; with DU-145; in assay [1]; in the assay on A549; in the assay on K562) was over 200 µg/mL each time.

Turning to `C=C1C(=O)[C@]23C[C@H]1CC[C@H]2[C@]1(COC3=O)C(=O)C=CC(C)(C)[C@H]1C=O`, the IC50 was 0.257 µg/mL (≈ 0.751 µM) with MCF7; 47.4 µg/mL (≈ 138 µM) in the assay on DU-145; 20.7 µg/mL (≈ 60.3 µM) in assay [1]; 2.26 µg/mL (≈ 6.6 µM) with A549; 0.27 µg/mL (≈ 0.789 µM) with K562.

Turning to `C=C1[C@@H]2CC[C@H]3[C@@]45CO[C@@](O)([C@@H](O)[C@@H]4C(C)(C)C=CC5=O)[C@]3(C2)[C@@H]1O`, the IC50 was 83.6 µg/mL (≈ 241 µM) in the assay with MCF7; over 100 µg/mL in the assay on DU-145; 52.8 µg/mL (≈ 152 µM) in assay [1]; 15.3 µg/mL (≈ 44.1 µM) in the assay on A549; 33.2 µg/mL (≈ 96 µM) with K562.

Turning to `C=C1C(=O)[C@]23C[C@H]1CC[C@H]2[C@@]12CO[C@@]3(OC(C)=O)[C@@H](O)[C@@H]1C(C)(C)C=CC2=O`, the IC50 with MCF7 is over 100 µg/mL; in the assay with DU-145 it was 74.7 µg/mL (≈ 193 µM); in assay [1], 13.1 µg/mL (≈ 34 µM); in the assay with A549, 38.9 µg/mL (≈ 101 µM); with K562 it was 7.23 µg/mL (≈ 18.7 µM).

Take `C=C1C(=O)[C@]23C[C@H]1CC[C@H]2[C@@]12CO[C@@]3(O)C(=O)[C@@H]1C(C)(C)C=CC2=O`: the IC50 in the assay with MCF7 stood at 59.6 µg/mL (≈ 174 µM); in the assay on DU-145, 12 µg/mL (≈ 35 µM); in assay [1], 7.28 µg/mL (≈ 21.3 µM); in the assay on A549 it was 33.2 µg/mL (≈ 96.9 µM); in the assay with K562, 4.94 µg/mL (≈ 14.4 µM).

On to `C=C1C(=O)[C@]23C[C@H]1CC[C@H]2[C@@]12CO[C@@]3(O)[C@@H](O)[C@@H]1C(C)(C)C=CC2=O`, for which the half-maximal inhibitory concentration (IC50) with MCF7 amounted to 0.15 µg/mL (≈ 0.436 µM); in the assay with DU-145, 1.34 µg/mL (≈ 3.89 µM); in assay [1] it was 1.8 µg/mL (≈ 5.23 µM); in the assay with A549, 2.49 µg/mL (≈ 7.23 µM); in the assay on K562, 1.32 µg/mL (≈ 3.83 µM).

In the case of `C=C1[C@@H]2CC[C@H]3[C@@]45CO[C@@](O)([C@@H](O)[C@@H]4C(C)(C)C=C[C@@H]5O)[C@]3(C2)[C@@H]1O`, the IC50 in the assay with MCF7 is over 100 µg/mL; with DU-145, over 100 µg/mL; in assay [1] it was over 200 µg/mL; in the assay with A549, over 100 µg/mL; in the assay with K562 it was over 100 µg/mL.

In the case of `C=CC(=O)O[C@H]1[C@@H]2C(C)(C)C=CC(=O)[C@]23CO[C@]1(O)[C@@]12C[C@@H](CC[C@@H]31)C(=C)C2=O`, the IC50 in the assay with MCF7 was determined as 6.56 µg/mL (≈ 16.5 µM); in the assay with DU-145, 41.2 µg/mL (≈ 103 µM); in assay [1] it was 4.33 µg/mL (≈ 10.9 µM); in the assay on A549, 33 µg/mL (≈ 82.8 µM); in the assay with K562, 5.05 µg/mL (≈ 12.7 µM).

Consider `C=C1C(=O)[C@]23C[C@H]1CC[C@H]2[C@]1(COC3=O)C(=O)C=CC(C)(C)[C@H]1C(=O)O`, for which the IC50 was over 100 µg/mL in the assay with MCF7; over 100 µg/mL in the assay on DU-145; over 200 µg/mL in assay [1]; over 100 µg/mL in the assay on A549; over 100 µg/mL in the assay on K562.

For the compound `C=C1C(=O)[C@]23C[C@H]1CC[C@H]2[C@]12CO[C@@H](CC1=O)C(C)(C)[C@H]2[C@H](OC(=O)CCCCl)C3=O`, the IC50 is over 100 µg/mL with MCF7; over 100 µg/mL in the assay with DU-145; 42.6 µg/mL (≈ 95 µM) in assay [1]; 68.1 µg/mL (≈ 152 µM) in the assay with A549; over 100 µg/mL with K562.

As to `C=C(C(=O)O)[C@@H]1CC[C@@H]2[C@@H](C1)C(=O)[C@@H](O)[C@@H]1C(C)(C)[C@@H]3CC(=O)[C@@]21CO3`, the IC50 is over 200 µg/mL with MCF7; over 200 µg/mL with DU-145; over 200 µg/mL in assay [1]; over 200 µg/mL with A549; over 100 µg/mL with K562.

With `C=C1C(=O)[C@]23C[C@H]1CC[C@H]2[C@]12CO[C@@H](CC1=O)C(C)(C)[C@H]2[C@H](O)C3=O`, the concentration for half-maximal inhibition (IC50) in the assay with MCF7 is 8.87 µg/mL (≈ 25.8 µM); in the assay on DU-145, 33.2 µg/mL (≈ 96.3 µM); in assay [1], 16.9 µg/mL (≈ 49.2 µM); with A549 it was 27.2 µg/mL (≈ 79 µM); in the assay with K562, 3.73 µg/mL (≈ 10.8 µM).

Regarding `C=C1[C@@H]2CC[C@H]3[C@@]45CO[C@@](O)([C@@H](O)[C@@H]4C(C)(C)CC[C@@H]5O)[C@]3(C2)[C@@H]1O`, the IC50 was over 100 µg/mL with MCF7; over 100 µg/mL with DU-145; over 200 µg/mL in assay [1]; over 100 µg/mL in the assay on A549; over 100 µg/mL in the assay with K562.

A word on the IC50: it is the concentration needed to halve the response being measured. A high value points to lower potency.
